The record followed here is patent publication US10253017B2, “Derivatives of 2-aminopyridine as adenosine A2B receptor antagonists and ligands of the melatonin MT3 receptors” (PALOBIOFARMA, S.L., priority 2015, dated 2019).

The target of one experiment is adenosine A2A receptor (Homo sapiens (Human), UniProt P29274). As to the kind of experiment: Adenosine A2A receptor binding (hA2A Ki).
The target of another experiment is adenosine A2B receptor (Homo sapiens (Human), UniProt P29275). As to the kind of experiment: Adenosine A2B receptor subtype competition radioligand binding assay ([3H]DPCPX). The settings on record: human recombinant receptor (HEK-293 cells), [3H]DPCPX radioligand; read-out: hA2B, Ki. The text has this:
Adenosine A2B Receptor Subtype Competition Radioligand Binding Assay

The target in a further experiment is MT3 melatonin receptor (Mesocricetus auratus, UniProt A0ABM2YAB8). As to the kind of experiment: Binding to melatonin MT3 binding sites ([125I]2-iodomelatonin, hamster brain membranes). The settings on record: [125I]2-iodomelatonin radioligand. The procedure: Study of Binding to Melatonin MT3 Binding Sites
The experiment of binding to MT3 sites was carried out on hamster brain membranes using [^125I]2-iodomelatonin as radioligand in accordance with the protocol described by Pickering, D. S et al. (Pickering, D. S et al, 1990, Pharmacological characterization of melatonin binding sites in Syrian hamster hypothalamus, Eur J Pharmacol. 1990 Jan. 3; 175(1):71-7).

adenosine A2A receptor, sequence (P29274 whole entry): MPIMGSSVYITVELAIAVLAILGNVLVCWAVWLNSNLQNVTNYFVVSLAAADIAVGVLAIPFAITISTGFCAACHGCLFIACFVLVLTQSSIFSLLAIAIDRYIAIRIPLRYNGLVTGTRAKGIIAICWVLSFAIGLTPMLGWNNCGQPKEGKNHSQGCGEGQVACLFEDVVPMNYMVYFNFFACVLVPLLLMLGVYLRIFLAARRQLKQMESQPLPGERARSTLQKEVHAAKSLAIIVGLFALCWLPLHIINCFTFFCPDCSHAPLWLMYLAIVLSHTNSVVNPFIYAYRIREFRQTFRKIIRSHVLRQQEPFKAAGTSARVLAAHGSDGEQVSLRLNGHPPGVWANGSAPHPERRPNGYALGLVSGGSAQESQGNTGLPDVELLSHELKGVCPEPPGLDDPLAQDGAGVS
adenosine A2B receptor, sequence (P29275 whole entry): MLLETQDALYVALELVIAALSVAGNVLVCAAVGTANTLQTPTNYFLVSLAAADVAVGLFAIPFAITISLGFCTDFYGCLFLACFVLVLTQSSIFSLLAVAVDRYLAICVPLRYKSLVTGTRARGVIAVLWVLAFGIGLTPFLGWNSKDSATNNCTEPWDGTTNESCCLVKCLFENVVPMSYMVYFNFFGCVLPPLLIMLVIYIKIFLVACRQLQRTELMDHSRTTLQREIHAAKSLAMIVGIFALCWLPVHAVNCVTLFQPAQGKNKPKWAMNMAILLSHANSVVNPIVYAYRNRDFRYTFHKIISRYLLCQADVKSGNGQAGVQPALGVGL
MT3 melatonin receptor, sequence (A0ABM2YAB8 1-231): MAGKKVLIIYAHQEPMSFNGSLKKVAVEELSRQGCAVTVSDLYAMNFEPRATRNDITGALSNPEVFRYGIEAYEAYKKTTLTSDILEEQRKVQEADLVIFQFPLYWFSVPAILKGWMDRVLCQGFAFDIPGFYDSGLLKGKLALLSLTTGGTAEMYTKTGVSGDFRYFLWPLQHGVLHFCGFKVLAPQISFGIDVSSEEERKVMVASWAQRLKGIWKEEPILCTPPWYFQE

For the compound `Nc1nc(-c2cccnc2)c(-c2ccncc2)cc1Br` [Example 22, 3-bromo-6-(pyridin-3-yl)-5-(pyridin-4-yl)pyridin-2-amine], the Ki was 300 nM at adenosine A2A receptor and 46.1 nM at adenosine A2B receptor. The compound also had a half-inhibitory concentration (IC50) on MT3 melatonin receptor of 140 nM.

As to `Nc1nc(-c2ccncc2)c(-c2ccncc2F)cc1Br` [Example 35, 3-bromo-5-(3-fluoropyridin-4-yl)-6-(pyridin-4-yl)pyridin-2-amine], the figures for the inhibition constant Ki at adenosine A2A receptor and at adenosine A2B receptor were 1300 nM and 13 nM, respectively.

Turning to `Nc1nc(-c2cncc(F)c2)c(-c2ccncc2F)cc1Cl` [Example 27, 3-chloro-6-(5-fluoropyridin-3-yl)-5-(3-fluoropyridin-4-yl)pyridin-2-amine], the Ki on adenosine A2A receptor was more than 5000 nM; on adenosine A2B receptor, 150 nM. Also, the IC50 on MT3 melatonin receptor was found to be 250 nM.

Regarding `Nc1nc(-c2cccnc2)c(-c2ccncc2)cc1Cl` [Example 21, 3-chloro-6-(pyridin-3-yl)-5-(pyridin-4-yl)pyridin-2-amine], the values for the Ki on adenosine A2A receptor and at adenosine A2B receptor were 500 nM and 34.5 nM, respectively. The compound also came in with an IC50 on MT3 melatonin receptor of 130 nM.

Turning to `Nc1nc(-c2cccnc2)c(-c2ccncc2F)cc1Br` [Example 24, 3-bromo-5-(3-fluoropyridin-4-yl)-6-(pyridin-3-yl)pyridin-2-amine], the inhibition constant (Ki) on adenosine A2A receptor is more than 5000 nM; on adenosine A2B receptor, 37 nM.

As for `Nc1nc(-c2ccncc2)c(-c2ccncc2F)cc1Cl` [Example 34, 3-chloro-5-(3-fluoropyridin-4-yl)-6-(pyridin-4-yl)pyridin-2-amine], the Ki came out at 555 nM at adenosine A2A receptor and 12 nM on adenosine A2B receptor.

As for `Nc1nc(-c2cccnc2)c(-c2ccncc2F)cc1Cl` [Example 23, 3-chloro-5-(3-fluoropyridin-4-yl)-6-(pyridin-3-yl)pyridin-2-amine], the inhibitory constant (Ki) on adenosine A2A receptor was determined as 4800 nM; at adenosine A2B receptor, 23.9 nM. Further, the IC50 on MT3 melatonin receptor was 98 nM.

With `Nc1ccc(-c2ccncc2F)c(-c2ccncc2)n1` [Example 11, 5-(3-fluoropyridin-4-yl)-6-(pyridin-4-yl)pyridin-2-amine], the Ki was more than 5000 nM at adenosine A2A receptor and 149 nM at adenosine A2B receptor.

As to `COc1ccc(-c2nc(N)c(Cl)cc2-c2ccncc2F)cn1` [Example 36, 3-chloro-5-(3-fluoropyridin-4-yl)-6-(6-methoxypyridin-3-yl)pyridin-2-amine], the inhibition constant Ki on adenosine A2A receptor was more than 5000 nM; on adenosine A2B receptor it was 24 nM.
